Test system: Stress protein genes
Test: DNA chip mRNA expression in yeast, stress protein genes (Table 6)
Format: cell-based, Saccharomyces cerevisiae S288C
Outline: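 Chemical exposure: 2 h, log-phase S. cerevisiae S288C, YPD, 25° C., dose set to inhibit growth without death. Profiling: mRNA labeled by reverse transcription with Cy3- or Cy5-dUTP, hybridized to whole-genome array. Output: fluorescence ratio against untreated culture.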

Measured: The level of expressed mRNA in the presence of chemical substance/The level of expressed mRNA in the absence of chemical substance

Cl[C@H]1[C@H](Cl)[C@@H](Cl)[C@@H](Cl)[C@H](Cl)[C@H]1Cl [(7), γ-hexachlorocyclohexane]
2.4: yeast gene YCR060W | yeast gene YMR173W | yeast gene YNL160W
1.3: yeast gene YBL075C | yeast gene YBL093C | yeast gene YGL073W | yeast gene YGL181W | yeast gene YHL046C | yeast gene YHR057C | yeast gene YOR027W | yeast gene YPR026W
1.8: yeast gene YCR083W | yeast gene YHR030C | yeast gene YIR037W | yeast gene YJL128C | yeast gene YLR259C
2.2: yeast gene YFR052W
3.1: yeast gene YML070W
2.7: yeast gene YCL035C
1.5: yeast gene YBR044C | yeast gene YDL022W | yeast gene YDR098C | yeast gene YHR104W | yeast gene YPL194W
1.9: yeast gene YDR519W
1.4: yeast gene YER057C | yeast gene YFL016C | yeast gene YFL020C | yeast gene YGL115W | yeast gene YPL140C | yeast gene YPL240C
2.6: yeast gene YLR109W
3.9: yeast gene YDR258C
1.0: yeast gene YDL025C | yeast gene YER103W | yeast gene YJR045C | yeast gene YKL210W
1.7: yeast gene YKR053C
3.2: yeast gene YNL241C
2.3: yeast gene YBR126C
2.1: yeast gene YHL028W
5.5: yeast gene YFL014W
1.1: yeast gene YBR067C | yeast gene YER042W | yeast gene YIL033C | yeast gene YLL024C | yeast gene YLL039C | yeast gene YLR006C | yeast gene YML007W | yeast gene YOR208W | yeast gene YPL106C | yeast gene YPL223C
2.0: yeast gene YIR038C | yeast gene YKL161C | yeast gene YLL060C
1.2: yeast gene YAL005C | yeast gene YAL015C | yeast gene YDR155C | yeast gene YDR436W | yeast gene YMR186W | yeast gene YNR076W | yeast gene YOL064C | yeast gene YPR005C
2.9: yeast gene YLL026W
0.7: yeast gene YDR077W | yeast gene YPL059W
6.6: yeast gene YBR072W
1.6: yeast gene YDR513W
0.4: yeast gene YJL158C | yeast gene YOR010C
0.6: yeast gene YBR054W | yeast gene YEL039C | yeast gene YIL011W | yeast gene YNL064C | yeast gene YOR009W
2.5: yeast gene YBR169C | yeast gene YMR021C
0.8: yeast gene YDR033W | yeast gene YER125W | yeast gene YGR088W | yeast gene YJL165C | yeast gene YJR090C | yeast gene YKL164C | yeast gene YOR008C
0.9: yeast gene YCR021C | yeast gene YDR293C | yeast gene YEL030W | yeast gene YJL159W | yeast gene YKL163W | yeast gene YOL161C
